Measured values reported in ChEMBL document CHEMBL3046001, “4-Thiazolidinone and 1-thia-3,4,9-triaza fluorene conjugates: synthesis, characterization and antimicrobial screening” (2013).
≈ marks a conversion by molar mass, not a printed value. Calls of active or inactive are those of the source. No cut-off for these calls is given here.

What was measured:
Micrococcus luteus [1] = test: Antibacterial activity against Micrococcus luteus MTCC 1538 assessed as growth inhibition after 24 hr by tube dilution method; format: functional; details: MTCC 1538, 24 h
Penicillium chrysogenum [2] = test: Antifungal activity against Penicillium chrysogenum MTCC 161 assessed as growth inhibition at 500 ug/mL after 48 hr by agar diffusion method; format: functional; details: MTCC 161, 48 h, read-out: DIZ
Pseudomonas fluorescens [3] = test: Antibacterial activity against Pseudomonas fluorescens MTCC 2421 assessed as growth inhibition at 100 ug/mL after 48 hr by agar diffusion method; format: functional; details: MTCC 2421, 48 h, read-out: DIZ
Pseudomonas fluorescens [4] = test: Antibacterial activity against Pseudomonas fluorescens MTCC 2421 assessed as growth inhibition at 250 ug/mL after 48 hr by agar diffusion method; format: functional; details: MTCC 2421, 48 h, read-out: DIZ
Aspergillus niger [5] = test: Antifungal activity against Aspergillus niger MTCC 2546 assessed as growth inhibition at 1250 ug/mL after 48 hr by agar diffusion method; format: functional; details: MTCC 2546, 48 h, read-out: DIZ
Micrococcus luteus [6] = test: Antibacterial activity against Micrococcus luteus MTCC 1538 assessed as growth inhibition at 100 ug/mL after 48 hr by agar diffusion method; format: functional; details: MTCC 1538, 48 h, read-out: DIZ
Staphylococcus aureus [7] = test: Antibacterial activity against Staphylococcus aureus MTCC 1430 assessed as growth inhibition at 500 ug/mL after 48 hr by agar diffusion method; format: functional; details: MTCC 1430, 48 h, read-out: DIZ
Bacillus subtilis [8] = test: Antibacterial activity against Bacillus subtilis MTCC 441 assessed as growth inhibition at 100 ug/mL after 48 hr by agar diffusion method; format: functional; details: MTCC 441, 48 h, read-out: DIZ
Bacillus subtilis [9] = test: Antibacterial activity against Bacillus subtilis MTCC 441 assessed as growth inhibition at 750 ug/mL after 48 hr by agar diffusion method; format: functional; details: MTCC 441, 48 h, read-out: DIZ
Penicillium chrysogenum [10] = test: Antifungal activity against Penicillium chrysogenum MTCC 161 assessed as growth inhibition at 1250 ug/mL after 48 hr by agar diffusion method; format: functional; details: MTCC 161, 48 h, read-out: DIZ
Penicillium chrysogenum [11] = test: Antifungal activity against Penicillium chrysogenum MTCC 161 assessed as growth inhibition after 24 hr by tube dilution method; format: functional; details: MTCC 161, 24 h
Escherichia coli [12] = test: Antibacterial activity against Escherichia coli MTCC 1573 assessed as growth inhibition at 250 ug/mL after 48 hr by agar diffusion method; format: functional; details: MTCC 1573, 48 h, read-out: DIZ
Escherichia coli [13] = test: Antibacterial activity against Escherichia coli MTCC 1573 assessed as growth inhibition at 1250 ug/mL after 48 hr by agar diffusion method; format: functional; details: MTCC 1573, 48 h, read-out: DIZ
Bacillus pumilus [14] = test: Antibacterial activity against Bacillus pumilus MTCC 1456 assessed as growth inhibition after 24 hr by tube dilution method; format: functional; details: MTCC 1456, 24 h
Escherichia coli [15] = test: Antibacterial activity against Escherichia coli MTCC 1573 assessed as growth inhibition at 500 ug/mL after 48 hr by agar diffusion method; format: functional; details: MTCC 1573, 48 h, read-out: DIZ
Pseudomonas fluorescens [16] = test: Antibacterial activity against Pseudomonas fluorescens MTCC 2421 assessed as growth inhibition at 1000 ug/mL after 48 hr by agar diffusion method; format: functional; details: MTCC 2421, 48 h, read-out: DIZ
Staphylococcus aureus [17] = test: Antibacterial activity against Staphylococcus aureus MTCC 1430 assessed as growth inhibition at 1000 ug/mL after 48 hr by agar diffusion method; format: functional; details: MTCC 1430, 48 h, read-out: DIZ
Pseudomonas aeruginosa [18] = test: Antibacterial activity against Pseudomonas aeruginosa MTCC 424 assessed as growth inhibition at 750 ug/mL after 48 hr by agar diffusion method; format: functional; details: MTCC 424, 48 h, read-out: DIZ
Pseudomonas fluorescens [19] = test: Antibacterial activity against Pseudomonas fluorescens MTCC 2421 assessed as growth inhibition at 1250 ug/mL after 48 hr by agar diffusion method; format: functional; details: MTCC 2421, 48 h, read-out: DIZ
Pseudomonas aeruginosa [20] = test: Antibacterial activity against Pseudomonas aeruginosa MTCC 424 assessed as growth inhibition at 1250 ug/mL after 48 hr by agar diffusion method; format: functional; details: MTCC 424, 48 h, read-out: DIZ
Pseudomonas fluorescens [21] = test: Antibacterial activity against Pseudomonas fluorescens MTCC 2421 assessed as growth inhibition after 24 hr by tube dilution method; format: functional; details: MTCC 2421, 24 h
Bacillus subtilis [22] = test: Antibacterial activity against Bacillus subtilis MTCC 441 assessed as growth inhibition at 500 ug/mL after 48 hr by agar diffusion method; format: functional; details: MTCC 441, 48 h, read-out: DIZ
Staphylococcus aureus [23] = test: Antibacterial activity against Staphylococcus aureus MTCC 1430 assessed as growth inhibition at 750 ug/mL after 48 hr by agar diffusion method; format: functional; details: MTCC 1430, 48 h, read-out: DIZ
Bacillus pumilus [24] = test: Antibacterial activity against Bacillus pumilus MTCC 1456 assessed as growth inhibition at 750 ug/mL after 48 hr by agar diffusion method; format: functional; details: MTCC 1456, 48 h, read-out: DIZ
Staphylococcus aureus [25] = test: Antibacterial activity against Staphylococcus aureus MTCC 1430 assessed as growth inhibition at 250 ug/mL after 48 hr by agar diffusion method; format: functional
Escherichia coli [26] = test: Antibacterial activity against Escherichia coli MTCC 1573 assessed as growth inhibition at 750 ug/mL after 48 hr by agar diffusion method; format: functional; details: MTCC 1573, 48 h, read-out: DIZ
Pseudomonas aeruginosa [27] = test: Antibacterial activity against Pseudomonas aeruginosa MTCC 424 assessed as growth inhibition at 1000 ug/mL after 48 hr by agar diffusion method; format: functional; details: MTCC 424, 48 h, read-out: DIZ
Micrococcus luteus [28] = test: Antibacterial activity against Micrococcus luteus MTCC 1538 assessed as growth inhibition at 750 ug/mL after 48 hr by agar diffusion method; format: functional; details: MTCC 1538, 48 h, read-out: DIZ
Bacillus pumilus [29] = test: Antibacterial activity against Bacillus pumilus MTCC 1456 assessed as growth inhibition at 1000 ug/mL after 48 hr by agar diffusion method; format: functional; details: MTCC 1456, 48 h, read-out: DIZ
Escherichia coli [30] = test: Antibacterial activity against Escherichia coli MTCC 1573 assessed as growth inhibition after 24 hr by tube dilution method; format: functional; details: MTCC 1573, 24 h
Staphylococcus aureus [31] = test: Antibacterial activity against Staphylococcus aureus MTCC 1430 assessed as growth inhibition after 24 hr by tube dilution method; format: functional; details: MTCC 1430, 24 h
Aspergillus niger [32] = test: Antifungal activity against Aspergillus niger MTCC 2546 assessed as growth inhibition at 750 ug/mL after 48 hr by agar diffusion method; format: functional; details: MTCC 2546, 48 h, read-out: DIZ
Bacillus pumilus [33] = test: Antibacterial activity against Bacillus pumilus MTCC 1456 assessed as growth inhibition at 250 ug/mL after 48 hr by agar diffusion method; format: functional; details: MTCC 1456, 48 h, read-out: DIZ
Penicillium chrysogenum [34] = test: Antifungal activity against Penicillium chrysogenum MTCC 161 assessed as growth inhibition at 1000 ug/mL after 48 hr by agar diffusion method; format: functional; details: MTCC 161, 48 h, read-out: DIZ
Pseudomonas fluorescens [35] = test: Antibacterial activity against Pseudomonas fluorescens MTCC 2421 assessed as growth inhibition at 500 ug/mL after 48 hr by agar diffusion method; format: functional; details: MTCC 2421, 48 h, read-out: DIZ
Bacillus subtilis [36] = test: Antibacterial activity against Bacillus subtilis MTCC 441 assessed as growth inhibition at 250 ug/mL after 48 hr by agar diffusion method; format: functional; details: MTCC 441, 48 h, read-out: DIZ
Aspergillus niger [37] = test: Antifungal activity against Aspergillus niger MTCC 2546 assessed as growth inhibition at 100 ug/mL after 48 hr by agar diffusion method; format: functional, organism-based
Pseudomonas aeruginosa [38] = test: Antibacterial activity against Pseudomonas aeruginosa MTCC 424 assessed as growth inhibition at 250 ug/mL after 48 hr by agar diffusion method; format: functional; details: MTCC 424, 48 h, read-out: DIZ
Pseudomonas aeruginosa [39] = test: Antibacterial activity against Pseudomonas aeruginosa MTCC 424 assessed as growth inhibition at 500 ug/mL after 48 hr by agar diffusion method; format: functional; details: MTCC 424, 48 h, read-out: DIZ

CC1SCC(=O)N1c1nnc2c3ccccc3nc-2s1 (centres undefined)
MIC (Micrococcus luteus [1]): 40 mg/L (≈ 132 µM) | zone of inhibition at 500 µg/mL (Penicillium chrysogenum [2]): 10 mm | zone of inhibition at 100 µg/mL (Pseudomonas fluorescens [3]): 8 mm | zone of inhibition at 250 µg/mL (Pseudomonas fluorescens [4]): 10 mm | zone of inhibition at 1250 µg/mL (Aspergillus niger [5]): 17 mm | zone of inhibition at 100 µg/mL (Micrococcus luteus [6]): 8 mm | zone of inhibition at 500 µg/mL (Staphylococcus aureus [7]): 8 mm | zone of inhibition at 100 µg/mL (Bacillus subtilis [8]): 10 mm | zone of inhibition at 750 µg/mL (Bacillus subtilis [9]): 18 mm | zone of inhibition at 1250 µg/mL (Penicillium chrysogenum [10]): 17 mm | MIC (Penicillium chrysogenum [11]): 250 mg/L (≈ 827 µM) | zone of inhibition at 250 µg/mL (Escherichia coli [12]): 10 mm | zone of inhibition at 1250 µg/mL (Escherichia coli [13]): 20 mm | MIC (Bacillus pumilus [14]): 30 mg/L (≈ 99.2 µM) | zone of inhibition at 500 µg/mL (Escherichia coli [15]): 13 mm | zone of inhibition at 1000 µg/mL (Pseudomonas fluorescens [16]): 21 mm | zone of inhibition at 1000 µg/mL (Staphylococcus aureus [17]): 15 mm | zone of inhibition at 750 µg/mL (Pseudomonas aeruginosa [18]): 15 mm | zone of inhibition at 1250 µg/mL (Pseudomonas fluorescens [19]): 24 mm | zone of inhibition at 1250 µg/mL (Pseudomonas aeruginosa [20]): 24 mm | MIC (Pseudomonas fluorescens [21]): 30 mg/L (≈ 99.2 µM) | zone of inhibition at 500 µg/mL (Bacillus subtilis [22]): 15 mm | zone of inhibition at 750 µg/mL (Staphylococcus aureus [23]): 11 mm | zone of inhibition at 750 µg/mL (Bacillus pumilus [24]): 18 mm | growth inhibition (GI) (Staphylococcus aureus [25]): inactive | zone of inhibition at 750 µg/mL (Escherichia coli [26]): 15 mm | zone of inhibition at 1000 µg/mL (Pseudomonas aeruginosa [27]): 20 mm | zone of inhibition at 750 µg/mL (Micrococcus luteus [28]): 14 mm | zone of inhibition at 1000 µg/mL (Bacillus pumilus [29]): 22 mm | MIC (Escherichia coli [30]): 40 mg/L (≈ 132 µM) | MIC (Staphylococcus aureus [31]): 250 mg/L (≈ 827 µM) | zone of inhibition at 750 µg/mL (Aspergillus niger [32]): 11 mm | zone of inhibition at 250 µg/mL (Bacillus pumilus [33]): 9 mm | zone of inhibition at 1000 µg/mL (Penicillium chrysogenum [34]): 15 mm | zone of inhibition at 500 µg/mL (Pseudomonas fluorescens [35]): 13 mm | zone of inhibition at 250 µg/mL (Bacillus subtilis [36]): 13 mm | growth inhibition (GI) (Aspergillus niger [37]): inactive | zone of inhibition at 250 µg/mL (Pseudomonas aeruginosa [38]): 11 mm | zone of inhibition at 500 µg/mL (Pseudomonas aeruginosa [39]): 12 mm
